One assay concerns the target PTPβ (Homo sapiens, UniProt P23467). Description: pNPP hydrolysis enzyme assay, PTPβ. Type of assay: biochemical. The method, then:
(§1) Enzyme kinetic assay. PTP activity was assayed using p-nitrophenyl phosphate (pNPP) as a substrate in 3,3-dimethylglutarate buffer (50 mM 3,3-dimethylglutarate, pH 7.0, 1 mM EDTA, 150 mM NaCl, 2 mM DTT, 0.1 mg/mL BSA) at 25° C. The assays were performed in 96-well plates. Normally, to determine the IC50 values, the reaction was initiated by the addition of enzyme (final concentration at 10 nM) to a reaction mixture (0.2 mL) containing 2 mM (Km for the substrate) pNPP with various concentrations of inhibitors. The reaction rate was measured using a SpectraMax Plus 384 Microplate Spectrophotometer (Molecular Devices). To determine the mode of inhibition, the reactions were initiated by the addition of PTP-MEG2 to the reaction mixtures (0.2 mL) containing various concentrations of pNPP with different concentrations of the inhibitor 7. Data were fitted using SigmaPlot Enzyme Kinetics Module (Systat Software, Inc.).

The target in a further assay is PTPμ (Homo sapiens (Human), UniProt P28827). In words: pNPP hydrolysis enzyme assay, PTPμ. Type of assay: biochemical. The method, then:
as §1

The target in a further assay is SHP2 (Homo sapiens (Human), UniProt Q06124). Description: pNPP hydrolysis enzyme assay, SHP2. The class given is biochemical. The procedure: as §1
Chain of SHP2 (Q06124 whole entry, species assumed): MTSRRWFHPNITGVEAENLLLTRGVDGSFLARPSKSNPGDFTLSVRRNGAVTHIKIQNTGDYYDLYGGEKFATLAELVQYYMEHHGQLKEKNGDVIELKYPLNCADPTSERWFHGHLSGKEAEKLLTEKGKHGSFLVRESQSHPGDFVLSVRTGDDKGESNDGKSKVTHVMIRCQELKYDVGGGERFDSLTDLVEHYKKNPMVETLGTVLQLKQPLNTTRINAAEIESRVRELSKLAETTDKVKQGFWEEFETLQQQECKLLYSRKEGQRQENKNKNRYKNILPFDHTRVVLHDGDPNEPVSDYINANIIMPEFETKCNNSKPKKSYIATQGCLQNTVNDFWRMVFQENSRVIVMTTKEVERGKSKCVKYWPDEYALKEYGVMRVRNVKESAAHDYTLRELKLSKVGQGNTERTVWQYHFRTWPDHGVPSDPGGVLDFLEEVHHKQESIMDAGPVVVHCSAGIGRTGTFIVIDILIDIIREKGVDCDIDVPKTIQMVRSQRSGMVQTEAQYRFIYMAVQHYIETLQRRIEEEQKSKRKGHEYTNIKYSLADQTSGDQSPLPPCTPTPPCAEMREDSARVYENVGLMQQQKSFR
In another assay the target is PTP1B (Homo sapiens (Human), UniProt P18031). Description: pNPP hydrolysis enzyme assay, PTP1B. The class given is biochemical. The method, then:
as §1

For assay [1], the system named is diet-induced obese C57BL/6 mice. In words: Pyruvate tolerance test in diet-induced obese mice. Type of assay: in vivo, mouse. The following applies: 5 mg/kg i.p. twice a day. The procedure:
C57BL/6J mice were fed a high-fat diet for 10 weeks before Compound 7 or vehicle was injected intraperitoneally twice a day at a dose of 5 mg/kg body weight. FIG. 5A depicts insulin tolerance tests (ITT) performed on Day 7 by injecting intraperitoneally a bolus of 0.75 unit/kg of human regular insulin. […] FIG. 5C depicts glucose tolerance tests (GTT) carried out on Day 9 after a bolus of 1 g/kg glucose was injected intraperitoneally. […] FIG. 5E depicts pyruvate tolerance tests (PTT) performed on Day 12 after an injection of 2 g/kg pyruvate solution. […] At the end of 2-week injections of Compound 7, animals were fasted overnight and stimulated with a bolus of 1 unit of human regular insulin or saline via vena cava. Three minutes later, liver, skeletal muscle, and white adipose tissue (WAT) were collected sequentially for insulin signaling analysis. FIG. 5G depicts the phosphorylation of Tyr1162/1163 in insulin receptor (IR) and Ser473 phosphorylation in Akt kinases and the corresponding proteins in the liver, skeletal muscle, and white adipose tissue (WAT) were analyzed by immunoblots.
To this end, we intraperitoneally injected Compound 7 into diet-induced obese C57BL/6 mice at a dose of 5 mg/kg twice a day. […] After 7 days of injections, we performed insulin tolerance tests to measure insulin sensitivity in vehicle and Compound 7 treated mice.

The target in another assay is PTPε (Homo sapiens (Human), UniProt P23469). In words: pNPP hydrolysis enzyme assay, PTPε. The class given is biochemical. The procedure: as §1
Chain of PTPε (P23469 20-700): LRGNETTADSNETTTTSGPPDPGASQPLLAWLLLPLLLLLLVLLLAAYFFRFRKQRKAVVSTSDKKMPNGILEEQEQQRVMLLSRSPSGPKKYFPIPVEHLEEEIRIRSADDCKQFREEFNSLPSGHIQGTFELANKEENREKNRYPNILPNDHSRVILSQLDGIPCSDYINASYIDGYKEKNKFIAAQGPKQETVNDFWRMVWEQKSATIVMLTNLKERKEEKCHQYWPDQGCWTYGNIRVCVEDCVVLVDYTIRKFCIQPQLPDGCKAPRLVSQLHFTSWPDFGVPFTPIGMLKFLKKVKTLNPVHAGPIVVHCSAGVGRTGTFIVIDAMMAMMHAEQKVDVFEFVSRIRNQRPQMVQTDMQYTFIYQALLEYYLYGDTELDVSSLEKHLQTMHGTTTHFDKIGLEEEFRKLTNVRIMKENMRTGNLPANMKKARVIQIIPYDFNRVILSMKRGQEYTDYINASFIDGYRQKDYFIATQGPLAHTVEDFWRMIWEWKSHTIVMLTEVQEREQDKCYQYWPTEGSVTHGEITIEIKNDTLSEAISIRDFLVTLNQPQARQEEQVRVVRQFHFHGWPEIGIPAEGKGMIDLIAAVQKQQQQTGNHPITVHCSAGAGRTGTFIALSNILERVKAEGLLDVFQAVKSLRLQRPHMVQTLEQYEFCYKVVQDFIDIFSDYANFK
In the next assay the test system is C2C12 myotubes. In words: Insulin signaling in C2C12 myotubes. The class given is cell-based. The following applies: 1 hour pretreatment, 100 nM insulin 30 min. The method, then:
Cell lysate (20 μg protein) was subjected to 10% SDS-PAGE and probed with phospho-Akt, phospho-IR (Y1162/1163) or Akt antibody, respectively. […] Cell lysate (20 μg protein) was subjected to 10% SDS-PAGE and probed with phospho-IR(Y1162/1163), phospho-Akt (pS473) or total Akt antibody, respectively. […] Cell lysate (20 μg protein) or insulin receptor immunoprecipitation beads were subjected to 10% SDS-PAGE and probed with phospho-Akt, Akt, insulin receptor beta or phospho-tyrosine antibody (4G10), respectively. The non-specific band from insulin receptor immunoprecipitates served as a loading control for insulin receptor and phospho-insulin receptor.
Western blot analysis. Cells were homogenized in the lysis buffer (50 mM Hepes, pH 7.5, 150 mM NaCl, 10% Glycerol, 1% Triton X-100, 1.5 mM MgCl2, 1 mM EGTA, 10 μM Sodium Pyrophosphate, 100 mM sodium fluoride and freshly added 100 μM sodium vanadate, 1 mM PMSF, 10 μg/ml Aprotinin, and 10 μg/mL Leupeptin). Protein extracts were resolved on an SDS-PAGE gel and transferred to nitrocellulose membrane. […] Protein signals were detected by incubation with HRP-conjugated secondary antibodies, followed by ECL detection reagent (Pierce). Western blots were scanned and quantified using the Quantity One software (Bio-Rad).

A further assay has as its target LYP (Homo sapiens (Human), UniProt Q9Y2R2). In words: pNPP hydrolysis enzyme assay, LYP. Type of assay: biochemical. The method, then: as §1
Another assay has as its target VHR (Homo sapiens (Human), UniProt P51452). In words: pNPP hydrolysis enzyme assay, VHR. Type of assay: biochemical. The method, then:
as §1

The target in another assay is PTP-PEST (Homo sapiens (Human), UniProt Q05209). In words: pNPP hydrolysis enzyme assay, PTP-PEST. Type of assay: biochemical. The method, then:
as §1

Assay [2] deals with panel of mammalian PTPs (PTP-MEG1, SHP1, SHP2, Lyp, FAP-1, PTP-PEST, PTPH1, Laforin, HePTP, CD45, LAR, DEP1, PTPμ, PTPγ, PTPβ, PTPε, VHR, VHX). Description: Inhibition of a panel of mammalian PTPs at 10 μM. The class given is biochemical. The method, then: as §1
The target in a further assay is TC-PTP (Homo sapiens (Human), UniProt P17706). Description: pNPP hydrolysis enzyme assay, TC-PTP. The class given is biochemical. The following applies: for IC50: pNPP substrate. The method, then:
as §1

Like-named read-outs stand apart in the source and are kept apart here. Where only a bound is given, the exact number is not on record here.

What is called IC50 is the concentration needed to halve the response being measured.

Chain of TC-PTP (P17706 whole entry, looked up, species assumed): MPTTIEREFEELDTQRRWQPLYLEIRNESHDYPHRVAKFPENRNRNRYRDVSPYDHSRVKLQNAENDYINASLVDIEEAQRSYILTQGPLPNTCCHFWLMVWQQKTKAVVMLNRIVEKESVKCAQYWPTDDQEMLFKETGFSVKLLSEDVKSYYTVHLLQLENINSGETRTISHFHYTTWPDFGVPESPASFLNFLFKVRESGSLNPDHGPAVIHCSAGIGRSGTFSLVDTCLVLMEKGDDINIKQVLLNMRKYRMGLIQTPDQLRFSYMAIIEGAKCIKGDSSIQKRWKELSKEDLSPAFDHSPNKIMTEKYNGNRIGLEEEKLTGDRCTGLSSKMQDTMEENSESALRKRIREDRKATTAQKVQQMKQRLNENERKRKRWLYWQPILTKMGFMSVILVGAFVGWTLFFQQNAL
Chain of PTP1B (P18031 whole entry, species assumed): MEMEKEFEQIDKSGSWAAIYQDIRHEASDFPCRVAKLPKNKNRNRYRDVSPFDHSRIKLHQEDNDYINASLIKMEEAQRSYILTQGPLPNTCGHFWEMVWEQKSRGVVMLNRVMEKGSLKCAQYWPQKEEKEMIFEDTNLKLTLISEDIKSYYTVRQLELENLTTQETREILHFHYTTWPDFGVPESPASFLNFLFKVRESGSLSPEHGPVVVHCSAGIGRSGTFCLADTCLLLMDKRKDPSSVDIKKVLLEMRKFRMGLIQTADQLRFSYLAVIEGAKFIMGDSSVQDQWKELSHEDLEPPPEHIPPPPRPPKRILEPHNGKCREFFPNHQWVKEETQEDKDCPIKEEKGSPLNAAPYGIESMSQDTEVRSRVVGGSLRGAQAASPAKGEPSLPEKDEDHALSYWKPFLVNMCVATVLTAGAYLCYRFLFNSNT
Chain of PTPβ (P23467 23-1997 limits assumed): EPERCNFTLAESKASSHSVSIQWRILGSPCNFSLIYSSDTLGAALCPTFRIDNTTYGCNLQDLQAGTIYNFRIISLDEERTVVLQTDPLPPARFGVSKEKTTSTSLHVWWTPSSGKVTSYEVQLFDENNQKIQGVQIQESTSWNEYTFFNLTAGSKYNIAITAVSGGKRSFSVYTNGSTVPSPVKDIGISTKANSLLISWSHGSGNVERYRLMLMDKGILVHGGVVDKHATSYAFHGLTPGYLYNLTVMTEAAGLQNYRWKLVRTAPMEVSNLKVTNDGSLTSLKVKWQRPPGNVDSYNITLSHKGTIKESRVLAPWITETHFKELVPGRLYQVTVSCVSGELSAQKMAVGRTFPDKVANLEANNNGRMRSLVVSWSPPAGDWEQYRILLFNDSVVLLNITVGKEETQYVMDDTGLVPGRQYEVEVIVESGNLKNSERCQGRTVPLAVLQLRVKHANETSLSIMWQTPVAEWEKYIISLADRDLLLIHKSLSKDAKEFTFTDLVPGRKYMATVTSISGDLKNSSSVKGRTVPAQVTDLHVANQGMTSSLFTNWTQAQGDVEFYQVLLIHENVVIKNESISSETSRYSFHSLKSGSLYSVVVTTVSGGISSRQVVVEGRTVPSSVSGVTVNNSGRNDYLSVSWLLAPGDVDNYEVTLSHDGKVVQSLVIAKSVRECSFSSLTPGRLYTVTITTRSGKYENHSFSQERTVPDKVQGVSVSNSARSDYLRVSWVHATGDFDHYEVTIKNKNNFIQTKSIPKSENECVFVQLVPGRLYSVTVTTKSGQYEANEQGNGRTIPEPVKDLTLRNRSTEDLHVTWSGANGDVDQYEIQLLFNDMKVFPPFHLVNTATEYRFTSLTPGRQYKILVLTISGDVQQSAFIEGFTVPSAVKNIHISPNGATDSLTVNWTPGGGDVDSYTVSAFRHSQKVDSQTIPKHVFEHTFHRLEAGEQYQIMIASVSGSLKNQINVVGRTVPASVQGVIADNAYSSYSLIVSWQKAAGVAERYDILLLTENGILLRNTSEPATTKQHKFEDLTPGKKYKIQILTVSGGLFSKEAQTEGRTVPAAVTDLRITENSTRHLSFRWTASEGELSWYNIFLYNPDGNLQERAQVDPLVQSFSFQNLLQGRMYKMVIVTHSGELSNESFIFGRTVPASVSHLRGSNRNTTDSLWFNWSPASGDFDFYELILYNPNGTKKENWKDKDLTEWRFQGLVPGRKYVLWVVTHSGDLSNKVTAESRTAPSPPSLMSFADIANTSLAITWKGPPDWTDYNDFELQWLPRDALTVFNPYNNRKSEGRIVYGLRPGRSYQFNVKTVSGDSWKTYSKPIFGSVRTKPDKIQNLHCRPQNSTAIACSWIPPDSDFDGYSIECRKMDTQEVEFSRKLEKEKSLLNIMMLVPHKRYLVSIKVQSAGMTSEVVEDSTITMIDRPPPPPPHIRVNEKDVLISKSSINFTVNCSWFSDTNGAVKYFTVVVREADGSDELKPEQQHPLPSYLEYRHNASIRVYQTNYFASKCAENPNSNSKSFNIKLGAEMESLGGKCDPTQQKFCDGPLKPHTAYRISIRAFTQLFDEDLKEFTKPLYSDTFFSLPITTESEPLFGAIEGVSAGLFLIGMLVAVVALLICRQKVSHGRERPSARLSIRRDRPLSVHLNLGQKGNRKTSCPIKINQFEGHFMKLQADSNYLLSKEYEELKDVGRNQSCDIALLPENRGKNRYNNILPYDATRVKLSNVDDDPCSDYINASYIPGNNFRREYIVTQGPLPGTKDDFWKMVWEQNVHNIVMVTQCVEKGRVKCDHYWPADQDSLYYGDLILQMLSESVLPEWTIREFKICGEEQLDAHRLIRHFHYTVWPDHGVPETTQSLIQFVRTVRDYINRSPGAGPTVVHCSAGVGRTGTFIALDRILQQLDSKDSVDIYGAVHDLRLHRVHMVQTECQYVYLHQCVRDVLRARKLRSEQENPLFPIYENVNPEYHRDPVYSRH
Chain of VHR (P51452 whole entry, species assumed): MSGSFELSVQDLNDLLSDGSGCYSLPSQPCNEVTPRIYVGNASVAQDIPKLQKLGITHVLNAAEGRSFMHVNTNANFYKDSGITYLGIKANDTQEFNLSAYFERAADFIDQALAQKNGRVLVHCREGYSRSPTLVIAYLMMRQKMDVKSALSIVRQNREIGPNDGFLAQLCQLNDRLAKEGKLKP
Chain of PTP-PEST (Q05209 whole entry, species assumed): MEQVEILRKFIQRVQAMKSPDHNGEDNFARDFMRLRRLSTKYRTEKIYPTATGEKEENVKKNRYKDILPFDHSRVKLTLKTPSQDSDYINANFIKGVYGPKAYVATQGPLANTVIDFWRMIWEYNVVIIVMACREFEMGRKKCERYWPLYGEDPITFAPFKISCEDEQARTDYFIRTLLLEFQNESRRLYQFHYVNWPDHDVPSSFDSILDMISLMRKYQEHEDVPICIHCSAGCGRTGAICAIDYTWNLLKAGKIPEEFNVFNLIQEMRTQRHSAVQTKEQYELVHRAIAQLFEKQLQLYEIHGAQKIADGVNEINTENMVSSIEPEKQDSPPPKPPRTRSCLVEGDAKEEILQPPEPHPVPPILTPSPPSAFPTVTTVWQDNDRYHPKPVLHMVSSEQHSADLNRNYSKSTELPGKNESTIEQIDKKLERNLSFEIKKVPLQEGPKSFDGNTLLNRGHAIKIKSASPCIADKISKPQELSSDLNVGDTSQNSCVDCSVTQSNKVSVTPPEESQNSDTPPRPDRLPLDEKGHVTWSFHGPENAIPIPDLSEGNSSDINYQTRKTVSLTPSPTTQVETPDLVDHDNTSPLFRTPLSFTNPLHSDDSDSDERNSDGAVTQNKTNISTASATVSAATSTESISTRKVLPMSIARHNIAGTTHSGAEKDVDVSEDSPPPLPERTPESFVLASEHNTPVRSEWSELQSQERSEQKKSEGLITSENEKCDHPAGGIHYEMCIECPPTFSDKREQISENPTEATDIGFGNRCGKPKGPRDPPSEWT

For the compound `COc1cc(CC(=O)NCC(NC(=O)C(CCCNC(=O)c2cccc(I)c2)NC(=O)C(Cc2ccc(C(F)(F)P(=O)(O)O)cc2)NC(=O)c2ccc(C)c(Br)c2)C(N)=O)ccc1O` (stereo not shown) [Compound 7], the 50% inhibitory concentration (IC50) on PTPβ is over 10000 nM; at PTPμ it was over 10000 nM; on SHP2, over 10000 nM; at PTP1B (pNPP substrate), 0.86 µM; at PTPε, over 10000 nM; against LYP, over 10000 nM. Also, the half-maximal inhibitory concentration (IC50) is over 10000 nM at VHR, over 10000 nM at PTP-PEST, 830 nM at TC-PTP (read-out: IC50 (nM) TC-PTP) and 830 nM at TC-PTP (read-out: IC50 for TC-PTP). For the same compound, on PTP1B (ratio of IC50 values), the “selectivity for PTP-MEG2 over PTP1B” value is reported as “more than 10 fold”. For the same compound, the “hepatic gluconeogenesis in pyruvate tolerance test” value in assay [1] (Day 12) is “significant suppression of hepatic gluconeogenesis”. Moreover, the “better pyruvate tolerance (AUC)” value in assay [1] (Day 12, vs vehicle) was determined as 25%. The “insulin signaling (phospho-Akt, phospho-IR)” value in the assay with C2C12 myotubes is given as “augmented insulin signaling”. Also, the “inhibition of a panel of mammalian PTPs” value in assay [2] is “no inhibition”. Besides, at TC-PTP (ratio of IC50 values), the “selectivity for PTP-MEG2 over TC-PTP” value is recorded as “more than 10 fold”.

The values above are taken from patent US9340574B2, “Inhibitors of protein tyrosine phosphatases” (Indiana University Research and Technology Corporation, priority 2012, dated 2016).
